Test [1] has as its target T1, RET (Homo sapiens, UniProt P07949).
T1 construct: RET JM-KD (residues 661–1012)
T1 sequence (P07949 661-1012): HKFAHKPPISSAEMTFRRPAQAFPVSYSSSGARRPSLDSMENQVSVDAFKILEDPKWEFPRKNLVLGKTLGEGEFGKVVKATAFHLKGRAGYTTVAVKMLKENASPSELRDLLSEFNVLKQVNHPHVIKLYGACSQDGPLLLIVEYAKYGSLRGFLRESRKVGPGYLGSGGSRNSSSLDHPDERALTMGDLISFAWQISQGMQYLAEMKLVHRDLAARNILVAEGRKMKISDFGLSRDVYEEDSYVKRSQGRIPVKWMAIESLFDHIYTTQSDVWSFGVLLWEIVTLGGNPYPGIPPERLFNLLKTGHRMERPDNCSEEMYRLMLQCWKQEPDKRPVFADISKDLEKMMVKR
The experiment in a line: isothermal titration calorimetry (ITC). The test is classed as binding. (In general: ITC needs no label: the signal is the heat of the interaction.)

Test [2] deals with T2, RET (Homo sapiens, UniProt P07949).
T2 construct: RET JM-KD (residues 659–1013), phosphorylated (Y809, Y905, S909, Y928)
T2 sequence (P07949 659-1013): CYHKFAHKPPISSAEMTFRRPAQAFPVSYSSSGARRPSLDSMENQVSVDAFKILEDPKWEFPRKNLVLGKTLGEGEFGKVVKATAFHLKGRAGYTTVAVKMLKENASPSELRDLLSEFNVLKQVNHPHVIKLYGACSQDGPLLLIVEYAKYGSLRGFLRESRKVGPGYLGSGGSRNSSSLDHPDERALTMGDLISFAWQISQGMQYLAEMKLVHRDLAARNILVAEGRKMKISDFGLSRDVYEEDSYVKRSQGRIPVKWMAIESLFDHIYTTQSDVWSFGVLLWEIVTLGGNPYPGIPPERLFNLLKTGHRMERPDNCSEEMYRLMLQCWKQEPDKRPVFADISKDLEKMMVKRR
Kind of test: X-ray crystal structures ([…] Å and […] Å). The test is classed as binding.

For orientation: Kd means the constant that tells how readily two partners part at equilibrium. Low readings indicate higher affinity, high ones lower affinity. In turn, `Nc1ncnc2c1ncn2[C@@H]1O[C@H](COP(=O)(O)OP(=O)(O)OP(=O)(O)O)[C@@H](O)[C@H]1O` [ATP] registered an equilibrium dissociation constant (Kd) in test [1] of 37.5 ± 3.1 µM.
Regarding `Cc1ccc(-c2nn(C(C)(C)C)c3ncnc(N)c23)cc1` [PP1], the “X-ray crystal structures (2.95 Å and 3.3 Å)” value in test [2] was “Both crystal structures contained the PP1 tyrosine kinase inhibitor in the nucleotide-binding pocket”.

Values taken from article PMC5199340, “RET Functions as a Dual-Specificity Kinase that Requires Allosteric Inputs from Juxtamembrane Elements” (Cell Reports, 2016).
